Experimental data reported in ChEMBL document CHEMBL5131391, “One-pot three-component synthesis of novel pyrazolo[3,4-b]pyridines as potent antileukemic agents” (Eur J Med Chem, 2022).

Key:
Format in all cases: functional
MCF7 = experiment: Antiproliferative activity against human MCF7 cells assessed as growth inhibition measured after 48 hrs by NCI protocol based SRB assay
SF-295 = experiment: Antiproliferative activity against human SF-295 cells assessed as growth inhibition measured after 48 hrs by NCI protocol based SRB assay
BT-549 = experiment: Antiproliferative activity against human BT-549 cells assessed as growth inhibition at 10 uM measured after 48 hrs by NCI protocol based SRB assay relative to control; conditions: read-out: GI
SK-MEL-28 = experiment: Antiproliferative activity against human SK-MEL-28 cells assessed as growth inhibition at 10 uM measured after 48 hrs by NCI protocol based SRB assay relative to control; conditions: read-out: GI
HCC 2998 [1] = experiment: Antiproliferative activity against human HCC 2998 cells assessed as growth inhibition at 10 uM measured after 48 hrs by NCI protocol based SRB assay relative to control; conditions: read-out: GI
OVCAR-5 [2] = experiment: Antiproliferative activity against human OVCAR-5 cells assessed as growth inhibition measured after 48 hrs by NCI protocol based SRB assay
HT-29 [3] = experiment: Antiproliferative activity against human HT-29 cells assessed as growth inhibition measured after 48 hrs by NCI protocol based SRB assay
Malme-3M = experiment: Antiproliferative activity against human Malme-3M cells assessed as growth inhibition at 10 uM measured after 48 hrs by NCI protocol based SRB assay relative to control; conditions: read-out: GI
A498 = experiment: Antiproliferative activity against human A498 cells assessed as growth inhibition at 10 uM measured after 48 hrs by NCI protocol based SRB assay relative to control; conditions: read-out: GI
SK-OV-3 = experiment: Antiproliferative activity against human SK-OV-3 cells assessed as growth inhibition at 10 uM measured after 48 hrs by NCI protocol based SRB assay relative to control; conditions: read-out: GI
UO-31 = experiment: Antiproliferative activity against human UO-31 cells assessed as growth inhibition measured after 48 hrs by NCI protocol based SRB assay
NCI-H460 [4] = experiment: Antiproliferative activity against human NCI-H460 cells assessed as growth inhibition at 10 uM measured after 48 hrs by NCI protocol based SRB assay relative to control; conditions: read-out: GI
COLO 205 = experiment: Antiproliferative activity against human COLO 205 cells assessed as growth inhibition at 10 uM measured after 48 hrs by NCI protocol based SRB assay relative to control; conditions: read-out: GI
MDA-MB-435 = experiment: Antiproliferative activity against human MDA-MB-435 cells assessed as growth inhibition at 10 uM measured after 48 hrs by NCI protocol based SRB assay relative to control; conditions: read-out: GI
OVCAR-8 = experiment: Antiproliferative activity against human OVCAR-8 cells assessed as growth inhibition at 10 uM measured after 48 hrs by NCI protocol based SRB assay relative to control; conditions: read-out: GI
HOP-92 = experiment: Antiproliferative activity against human HOP-92 cells assessed as growth inhibition at 10 uM measured after 48 hrs by NCI protocol based SRB assay relative to control; conditions: read-out: GI
OVCAR-5 [5] = experiment: Antiproliferative activity against human OVCAR-5 cells assessed as growth inhibition at 10 uM measured after 48 hrs by NCI protocol based SRB assay relative to control; conditions: read-out: GI
SK-MEL-5 = experiment: Cytostatic activity in human SK-MEL-5 cells assessed as tumor growth inhibition measured after 48 hrs by NCI protocol based SRB assay
HT-29 [6] = experiment: Antiproliferative activity against human HT-29 cells assessed as growth inhibition at 10 uM measured after 48 hrs by NCI protocol based SRB assay relative to control; conditions: read-out: GI
SNB-19 = experiment: Antiproliferative activity against human SNB-19 cells assessed as growth inhibition at 10 uM measured after 48 hrs by NCI protocol based SRB assay relative to control; conditions: read-out: GI
SNB-75 = experiment: Antiproliferative activity against human SNB-75 cells assessed as growth inhibition at 10 uM measured after 48 hrs by NCI protocol based SRB assay relative to control; conditions: read-out: GI
SF-539 = experiment: Antiproliferative activity against human SF-539 cells assessed as growth inhibition at 10 uM measured after 48 hrs by NCI protocol based SRB assay relative to control; conditions: read-out: GI
CCRF-CEM = experiment: Antiproliferative activity against human CEM cells assessed as reduction in cell viability incubated for 72 hrs by resazurin dye based assay
786-0 = experiment: Antiproliferative activity against human 786-0 cells assessed as growth inhibition at 10 uM measured after 48 hrs by NCI protocol based SRB assay relative to control; conditions: read-out: GI
SW-620 = experiment: Antiproliferative activity against human SW-620 cells assessed as growth inhibition at 10 uM measured after 48 hrs by NCI protocol based SRB assay relative to control; conditions: read-out: GI
NCI-H522 = experiment: Antiproliferative activity against human NCI-H522 cells assessed as growth inhibition at 10 uM measured after 48 hrs by NCI protocol based SRB assay relative to control; conditions: read-out: GI
HCC 2998 [7] = experiment: Cytostatic activity in human HCC 2998 cells assessed as tumor growth inhibition measured after 48 hrs by NCI protocol based SRB assay
SK-MEL-2 = experiment: Antiproliferative activity against human SK-MEL-2 cells assessed as growth inhibition at 10 uM measured after 48 hrs by NCI protocol based SRB assay relative to control; conditions: read-out: GI
NCI-H460 [8] = experiment: Cytostatic activity in human NCI-H460 cells assessed as tumor growth inhibition measured after 48 hrs by NCI protocol based SRB assay
T47D = experiment: Cytostatic activity in human T47D cells assessed as tumor growth inhibition measured after 48 hrs by NCI protocol based SRB assay
KM12 = experiment: Antiproliferative activity against human KM12 cells assessed as growth inhibition at 10 uM measured after 48 hrs by NCI protocol based SRB assay relative to control; conditions: read-out: GI
Hs-578T = experiment: Antiproliferative activity against human Hs-578T cells assessed as growth inhibition at 10 uM measured after 48 hrs by NCI protocol based SRB assay relative to control; conditions: read-out: GI
TK-10 = experiment: Antiproliferative activity against human TK-10 cells assessed as growth inhibition at 10 uM measured after 48 hrs by NCI protocol based SRB assay relative to control; conditions: read-out: GI
[9] = read-out: LC50 (the source's name)

SMILES: N#Cc1c(-c2ccccc2)nc2c(c(-c3ccccc3)nn2-c2ccccc2)c1-c1ccc(O)cc1
- GI50 (MCF7): 1.86 µM
- CC50 (MCF7; [9]): 90 µM
- GI50 (SF-295): 1.88 µM
- CC50 (SF-295; [9]): 9.8 µM
- inhibition of growth at 10 µM (BT-549): 41%
- inhibition of growth at 10 µM (SK-MEL-28): 51%
- inhibition of growth at 10 µM (HCC 2998 [1]): 28%
- GI50 (OVCAR-5 [2]): 1.75 µM
- CC50 (OVCAR-5 [2]; [9]): 6.66 µM
- GI50 (HT-29 [3]): 2.51 µM
- CC50 (HT-29 [3]; [9]): 54.7 µM
- inhibition of growth at 10 µM (Malme-3M): 57%
- inhibition of growth at 10 µM (A498): 101%
- inhibition of growth at 10 µM (SK-OV-3): 29%
- GI50 (UO-31): 2.02 µM
- CC50 (UO-31; [9]): 8.59 µM
- inhibition of growth at 10 µM (NCI-H460 [4]): 91%
- inhibition of growth at 10 µM (COLO 205): 59%
- inhibition of growth at 10 µM (MDA-MB-435): 49%
- inhibition of growth at 10 µM (OVCAR-8): 45%
- inhibition of growth at 10 µM (HOP-92): 50%
- inhibition of growth at 10 µM (OVCAR-5 [5]): 19%
- TGI (SK-MEL-5): 3.19 µM
- inhibition of growth at 10 µM (HT-29 [6]): 16%
- inhibition of growth at 10 µM (SNB-19): 61%
- inhibition of growth at 10 µM (SNB-75): 67%
- inhibition of growth at 10 µM (SF-539): 77%
- IC50 (CCRF-CEM): 33.4 µM
- inhibition of growth at 10 µM (786-0): 97%
- inhibition of growth at 10 µM (SW-620): 84%
- inhibition of growth at 10 µM (NCI-H522): 99%
- TGI (HCC 2998 [7]): 3.47 µM
- inhibition of growth at 10 µM (SK-MEL-2): 28%
- TGI (NCI-H460 [8]): 3.26 µM
- TGI (T47D): 23.8 µM
- inhibition of growth at 10 µM (KM12): 53%
- inhibition of growth at 10 µM (Hs-578T): 85%
- inhibition of growth at 10 µM (TK-10): 79%
